Laboratory results as given in patent publication US6737383B1, “Herbicidal oxadiazolidines” (priority 1999, dated 2004).

Legend:
[1] = test system: morningglory; experiment: Test A morningglory; type: in vivo, Ipomoea spp.; settings: 0 to 10 scale where 0 is no effect and 10 is complete control
Description: (§1) Seeds of barnyardgrass (Echinochloa crus-galli), crabgrass (Digitaria spp.), morningglory (Ipomoea spp.), and velvetleaf (Abutilon theophrasti) were planted into a sandy loam soil and treated preemergence by soil drench with test chemicals formulated in a non-phytotoxic solvent mixture which includes a surfactant At the same time, these crop and weed species were also treated postemergence sprayed to runoff, with test chemicals formulated in the same manner.
(§2) Plants ranged in height from two to eighteen cm and were in the one to two leaf stage for the postemergence treatment. Treated plants and untreated controls were maintained in a greenhouse for approximately eleven days, after which all treated plants were compared to untreated controls and visually evaluated for injury. Plant response ratings, summarized in Table A, are based on a 0 to 10 scale where 0 is no effect and 10 is complete control.

[2] = test system: barnyardgrass; experiment: Test A barnyardgrass; type: in vivo, Echinochloa crus-galli; settings: 0 to 10 scale where 0 is no effect and 10 is complete control
Description: as §1, §2

[3] = test system: velvetleaf; experiment: Test A velvetleaf; type: in vivo, Abutilon theophrasti; settings: 0 to 10 scale where 0 is no effect and 10 is complete control
Description: as §1, §2

[4] = test system: crabgrass; experiment: Test A crabgrass; type: in vivo, Digitaria spp.; settings: 0 to 10 scale where 0 is no effect and 10 is complete control
Method in brief: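 Visual injury score, 0 (no effect) to 10 (complete control), vs untreated controls at ~11 d in greenhouse. Pre: soil drench on sandy loam. Post: spray to runoff, 1–2 leaf stage.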

[5] = test system: Chenopodium album (CHEAL); experiment: Test F preemergence, alone and in mixture with rimsulfuron, CHEAL; type: in vivo; settings: 21 days after treatment, 0-100 scale
Description: (§3) Abutilon theophrasti (ABUTH), Chenopodium album (CHEAL), Amaranthus rudis (AMATA), Setaria faberii (SETFA), Panicum dichotomiflorum (PANDI), and Digitaria sanguinalis (DIGSA) were grown from seed in pots of an artificial potting mixture in a greenhouse. Compounds of the present invention were applied at 70 and 105 g ai/ha preemergence. Rimsulfuron was applied at 8.8 and 17.5 g ai/ha. Mixtures of the compounds of the present invention and rimsulfuron were also applied.
(§4) Following application, the plants were maintained by watering as needed. A fertilizer solution of Peter's 20-20-20 (10 pounds/5 gallons of water) plus Sprint 330, a Iron Chelate micronutrient, (113.5 grams/5 gallons of water) was injected into the water with an Anderson fertilizer injection system to provide approximately 219 ppm of nitrogen with each watering. Artificial lighting was used to supplement natural light to produce a 14 hour photoperiod and: an additional one hour light period was used between 1:00 am to 2:00 am for a night interruption. Greenhouse temperatures were targeted for 27° C. in the day and 21° C. at night. At 21 days after treatment, all plants were evaluated for injury as compared to control plants that were sprayed only with non-phytotoxic solvent.
(§5) Colby's equation was used to calculate the expected additive herbicidal effect of the mixtures of Compound 21 and the mixture partners listed above. […]

[6] = test system: Digitaria sanguinalis (DIGSA); experiment: Test F preemergence, alone and in mixture with rimsulfuron, DIGSA; type: in vivo; settings: 21 days after treatment, 0-100 scale
Method in brief: (§6)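 Greenhouse pot plants treated preemergence with compound at 70 and 105 g ai/ha, rimsulfuron at 8.8 and 17.5 g ai/ha, or mixtures; 27° C day/21° C night, 14 hour photoperiod. Injury scored at 21 days after treatment against solvent-sprayed controls; expected additive effect of mixtures calculated by Colby's equation.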

[7] = test system: Abutilon theophrasti (ABUTH); experiment: Test F preemergence, alone and in mixture with rimsulfuron, ABUTH; type: in vivo; settings: 21 days after treatment, 0-100 scale
Description: as §3, §4, §5

[8] = test system: Amaranthus rudis (AMATA); experiment: Test F preemergence, alone and in mixture with rimsulfuron, AMATA; type: in vivo; settings: 21 days after treatment, 0-100 scale
Description: as §3, §4, §5

[9] = test system: Setaria faberii (SETFA); experiment: Test F preemergence, alone and in mixture with rimsulfuron, SETFA; type: in vivo; settings: 21 days after treatment, 0-100 scale
Method in brief: as §6

[10] = test system: certain weeds; experiment: Test F overall statement on synergism with rimsulfuron (Colby's equation); type: in vivo; settings: combinations with rimsulfuron, preemergence
Description: as §4, with “Abutilon theophrasti (ABUTH), Chenopodium album (CHEAL), Amaranthus rudis (AMATA), Setaria […]), Panicum dichotomiflorum (PANDI), and Digitaria sanguinalis (DIGSA) were grown from seed in pots of an artificial potting mixture in a greenhouse. Compounds of the present invention were applied at 70 and 105 g ai/ha preemergence. Rimsulfuron was applied at 8.8 and 17.5 g ai/ha. Mixtures of the compounds of the present invention and rimsulfuron were also applied. Following” for “Following”, “solvent. […] Colby's equation was used to calculate the expected additive herbicidal effect of the mixtures of Compound 21 and the mixture partners listed above. […]” for “solvent.”

[11] = test system: Panicum dichotomiflorum (PANDI); experiment: Test F preemergence, alone and in mixture with rimsulfuron, PANDI; type: in vivo; settings: 21 days after treatment, 0-100 scale
Description: as §3, §4, §5

[12] = Alone: Cmpd. rate 70, Rimsulfuron 0
[13] = Alone: Cmpd. rate 105, Rimsulfuron 0

CCN(CC)C(=O)n1oc(=O)n(-c2c(C)cccc2C)c1=O [Compound 2]
Plant response rating, Morningglory ([1]; Postemergence, Rate 1000 g/ha): 0 | Plant response rating, Morningglory ([1]; Pre-emergence, Rate 2000 g/ha): 0 | Plant response rating, Barnyardgrass ([2]; Postemergence, Rate 1000 g/ha): 8 | Plant response rating, Barnyardgrass ([2]; Pre-emergence, Rate 2000 g/ha): 9 | Plant response rating, Velvetleaf ([3]; Postemergence, Rate 1000 g/ha): 0 | Plant response rating, Velvetleaf ([3]; Pre-emergence, Rate 2000 g/ha): 0 | Plant response rating, Crabgrass ([4]; Postemergence, Rate 1000 g/ha): 0 | Plant response rating, Crabgrass ([4]; Pre-emergence, Rate 2000 g/ha): 2

CC(C)N(C(=O)n1oc(=O)n(-c2ccc(Cl)cc2Cl)c1=O)c1ccc(F)cc1 [Compound 7, 4-(2,4-Dichlorophenyl)-N-(4-fluorophenyl)-N-(1-methylethyl)-3,5-dioxo-1,2,4-oxadiazolidine-2-carboxamide]
melting point: 57 to 60 °C

CC(C)N(C(=O)n1oc(=O)n(C2CC2)c1=O)c1ccc(F)cc1 [Compound 242]
CHEAL Observed [5, 12]: 30% | CHEAL Observed [5, 13]: 100% | DIGSA Observed [6, 12]: 100% | DIGSA Observed [6, 13]: 100% | ABUTH Observed [7, 12]: 50% | ABUTH Observed [7, 13]: 70% | AMATA Observed [8, 12]: 20% | AMATA Observed [8, 13]: 55% | SETFA Observed [9, 12]: 60% | SETFA Observed [9, 13]: 75% | Weed control of combination with rimsulfuron compared with expectation from Colby's equation [10]: better control of certain weeds than expected | PANDI Observed [11, 12]: 60% | PANDI Observed [11, 13]: 80%
